Data reported in PubChem BioAssay (NCI).
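Compound exposure: 48 hours, 5 concentrations, 96-well plates. GI50: concentration for 50% inhibition of growth. TGI denotes the concentration required for complete inhibition of growth.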

Assays:
Assay in all cases: growth of human tumour cells (NCI), 48 h
UACC-257 melanoma = test system: UACC-257 melanoma
ACHN renal = test system: ACHN renal
MDA-MB-231 breast = test system: MDA-MB-231 breast
OVCAR-4 ovarian = test system: OVCAR-4 ovarian
A498 renal = test system: A498 renal
NCI-H23 lung = test system: NCI-H23 lung
SF-295 CNS = test system: SF-295 CNS
NCI-H460 lung = test system: NCI-H460 lung
NCI/ADR-RES ovarian = test system: NCI/ADR-RES ovarian
MCF7 breast = test system: MCF7 breast

SMILES	TGI (UACC-257 melanoma)	TGI (ACHN renal)	TGI (MDA-MB-231 breast)	TGI (OVCAR-4 ovarian)	TGI (A498 renal)	TGI (NCI-H23 lung)	TGI (SF-295 CNS)	TGI (NCI-H460 lung)	TGI (NCI/ADR-RES ovarian)	TGI (MCF7 breast)	GI50 (UACC-257 melanoma)	GI50 (ACHN renal)	GI50 (MDA-MB-231 breast)	GI50 (OVCAR-4 ovarian)	GI50 (A498 renal)	GI50 (NCI-H23 lung)	GI50 (SF-295 CNS)	GI50 (NCI-H460 lung)	GI50 (NCI/ADR-RES ovarian)	GI50 (MCF7 breast)
O=C1/C(=C2\SCC(=O)N2c2ccccc2)SC(=S)N1c1ccccc1	> 100 µM	97.7 µM	45.2 µM	66.9 µM	> 100 µM	> 100 µM	82.7 µM	> 100 µM	90.7 µM	> 100 µM	–	–	–	–	–	–	–	–	–	–
C=C1[C@H](OCC(C)C)[C@@H](OC(=O)C(C)CC)[C@@H](O)C(C)(C)/C=C/[C@H](C)C(=O)[C@@]2(O)C[C@H](C)[C@H](O)[C@@H]2[C@H]1OC(=O)C(C)CC (stereo not given in full)	> 14.1 µM	> 13 µM	> 12.5 µM	> 20 µM	12.2 µM	> 15.8 µM	> 16.9 µM	8.18 µM	> 20 µM	> 16 µM	–	–	–	–	–	–	–	–	–	–
CC1=CC(=O)/C(=C/N2CCNC2=S)C(=O)O1	> 100 µM	> 100 µM	> 100 µM	> 100 µM	> 100 µM	> 100 µM	> 100 µM	> 100 µM	> 100 µM	> 100 µM	–	–	–	–	–	–	–	–	–	–
COC1CCC(n2c([C@@H]3CCCC(=O)N3c3ccc(F)c(F)c3)nc3cc(-c4c(C)noc4C)ccc32)CC1 (stereo not given in full)	> 100 µM	21.1 µM	26 µM	26.5 µM	20 µM	40.5 µM	29 µM	> 100 µM	30 µM	15.1 µM	2540 nM	4.78 µM	8.46 µM	782 nM	5.99 µM	13.3 µM	6.72 µM	26.3 µM	13.5 µM	626 nM
C1=C[C@]2(CCC13OCCO3)COc1ccccc12	> 100 µM	> 100 µM	> 100 µM	> 100 µM	> 100 µM	99.5 µM	> 100 µM	> 100 µM	96.4 µM	> 100 µM	–	–	–	–	–	–	–	–	–	–
C/C(NC(=O)c1ccccc1)=C(/C(=O)c1ccccc1)[C@@H]1OC(C)(C)O[C@@H]1[C@H]1COC(C)(C)O1	> 100 µM	> 100 µM	> 100 µM	> 100 µM	> 100 µM	93.9 µM	> 100 µM	65.5 µM	> 100 µM	> 100 µM	–	–	–	–	–	–	–	–	–	–
C=CCc1cccc2cc(C(=O)Nc3nc(C45CC6CC(CC(C6)C4)C5)cs3)c(=O)oc12	> 100 µM	33.9 µM	62.1 µM	51.5 µM	70.6 µM	59.2 µM	31.3 µM	> 100 µM	> 100 µM	> 100 µM	–	–	–	–	–	–	–	–	–	–
COc1cccc(/C=N/n2c(Cc3ccc(Cl)cc3)n[nH]c2=O)c1	> 100 µM	67.3 µM	48.2 µM	> 100 µM	> 100 µM	> 70.3 µM	35.4 µM	> 100 µM	> 88.7 µM	> 100 µM	–	–	–	–	–	–	–	–	–	–
CCOC(=O)C1=CN(C(=O)c2ccccc2)CCC1Cc1ccccc1 (stereo not given)	34.3 µM	63.6 µM	64.9 µM	> 100 µM	39.4 µM	> 100 µM	> 100 µM	44.9 µM	93 µM	64 µM	–	–	–	–	–	–	–	–	–	–
O=C1OC(C(O)C(O)C(O)CO)C(O)C1O (stereo not given)	> 100 µM	> 100 µM	> 100 µM	> 100 µM	> 100 µM	> 100 µM	> 100 µM	> 100 µM	> 100 µM	> 100 µM	–	–	–	–	–	–	–	–	–	–
CN(/N=C/c1ccc(Cl)c(Cl)c1)C1=NCCN1	45.2 µM	> 100 µM	77.2 µM	> 100 µM	28.1 µM	> 100 µM	69 µM	> 100 µM	> 100 µM	49.8 µM	–	–	–	–	–	–	–	–	–	–
CC(C)C[C@H](NC(=O)[C@H](CCc1ccccc1)NC(=O)c1ccc2ccccc2n1)B(O)O	0.0676 µM	0.176 µM	0.305 µM	3.09 µM	4.38 µM	0.338 µM	0.305 µM	2.47 µM	4.66 µM	4.2 µM	–	–	–	–	–	–	–	–	–	–
Nc1ccc(-c2nc3cc(F)ccc3s2)cc1	> 100 µM	> 61.7 µM	81.5 µM	> 100 µM	> 100 µM	> 46.5 µM	> 85.7 µM	> 100 µM	> 100 µM	> 63.2 µM	–	–	–	–	–	–	–	–	–	–
N#CI1OC(C(F)(F)F)(C(F)(F)F)c2ccccc21	51.8 µM	36.9 µM	54.7 µM	30.6 µM	> 100 µM	36 µM	> 100 µM	72.5 µM	40.3 µM	42.3 µM	–	–	–	–	–	–	–	–	–	–
Cc1nc2sccn2c1C(=O)OCCOCCOCCOCCOC(=O)c1c(C)nc2sccn12	> 100 µM	> 100 µM	> 100 µM	> 100 µM	> 100 µM	> 100 µM	> 100 µM	> 100 µM	> 100 µM	> 100 µM	–	–	–	–	–	–	–	–	–	–
COC1=C(OC)C(=O)C(Cc2c(Cl)nc3n2CCS3)=C(C)C1=O	22.2 µM	33.2 µM	27.5 µM	21 µM	35.6 µM	47.5 µM	30.4 µM	30.8 µM	34.2 µM	33 µM	–	–	–	–	–	–	–	–	–	–
CN1N(c2ccccc2)C(=O)C2=NC=C(C#N)C(=N)C21C (stereo not given)	> 100 µM	> 100 µM	> 100 µM	> 100 µM	> 100 µM	> 100 µM	> 100 µM	> 100 µM	> 100 µM	> 100 µM	–	–	–	–	–	–	–	–	–	–

SMILES	TGI (UACC-257 melanoma)	TGI (ACHN renal)	TGI (MDA-MB-231 breast)	TGI (OVCAR-4 ovarian)	TGI (A498 renal)	TGI (NCI-H23 lung)	TGI (SF-295 CNS)	TGI (NCI-H460 lung)	TGI (NCI/ADR-RES ovarian)	TGI (MCF7 breast)	GI50 (UACC-257 melanoma)	GI50 (ACHN renal)	GI50 (MDA-MB-231 breast)	GI50 (OVCAR-4 ovarian)	GI50 (A498 renal)	GI50 (NCI-H23 lung)	GI50 (SF-295 CNS)	GI50 (NCI-H460 lung)	GI50 (NCI/ADR-RES ovarian)	GI50 (MCF7 breast)
COc1cc(C2c3cc4c(cc3OC(N3CCOCC3)C2C)OCO4)cc(OC)c1OC(C)=O (stereo not given)	> 100 µM	> 100 µM	99.2 µM	> 100 µM	81.3 µM	> 95.2 µM	49 µM	> 100 µM	30.8 µM	> 100 µM	–	–	–	–	–	–	–	–	–	–
COc1cnnc2c(C)c(-c3ccccc3)nn12	> 100 µM	> 100 µM	> 100 µM	> 100 µM	> 100 µM	> 100 µM	> 100 µM	> 100 µM	> 100 µM	> 100 µM	–	–	–	–	–	–	–	–	–	–
O=C1CC(Cl)c2c(Cl)sc(Cl)c21 (stereo not given)	9.25 µM	3.45 µM	> 25.7 µM	10.3 µM	27.3 µM	9.32 µM	31.7 µM	40 µM	> 28.5 µM	2.11 µM	–	–	–	–	–	–	–	–	–	–
CC(CN(C)C)C(=O)/C=C/c1ccc(Cl)c(Cl)c1 (stereo not given)	5.61 µM	3.92 µM	3.29 µM	19 µM	3.69 µM	5.11 µM	12.9 µM	5.2 µM	79.6 µM	0.929 µM	–	–	–	–	–	–	–	–	–	–
COC1=CCC2=C(CCN(C(=O)C3CCC3)C2Cc2ccc(OC)c(O)c2)C1 (stereo not given)	> 100 µM	> 100 µM	> 100 µM	> 100 µM	84.5 µM	28.7 µM	45.4 µM	31.1 µM	41.4 µM	50.1 µM	–	–	–	–	–	–	–	–	–	–
CC(C)(CN1CCCCC1)C(=O)/C=C/c1c(Cl)cccc1Cl	6.36 µM	3.28 µM	2.15 µM	4.98 µM	4.96 µM	2.84 µM	7.05 µM	3.86 µM	5.09 µM	5.31 µM	–	–	–	–	–	–	–	–	–	–
Cc1cnc2[nH]c(-c3cccc(Cl)c3)cc(=O)c2c1	> 100 µM	> 100 µM	1.46 µM	> 100 µM	> 100 µM	> 100 µM	1.64 µM	> 58.2 µM	> 100 µM	> 100 µM	–	–	–	–	–	–	–	–	–	–
Cc1nc(N)nc(N)c1N1CCN(Cc2ccccc2)CC1	> 100 µM	> 100 µM	> 100 µM	> 100 µM	> 100 µM	> 100 µM	> 100 µM	> 100 µM	> 92.6 µM	> 100 µM	–	–	–	–	–	–	–	–	–	–
CCOC(=O)/C=C(/C(=O)OCC)n1ccc(=O)[nH]c1=O	25.2 µM	14.6 µM	26.4 µM	38.7 µM	38.2 µM	30.4 µM	34.7 µM	30.5 µM	40.4 µM	14.9 µM	–	–	–	–	–	–	–	–	–	–
CCOC(=O)O/N=C1/C(c2c(O)[nH]c3ccccc23)=Nc2ccccc21	24.6 µM	33.1 µM	63 µM	45.2 µM	16.8 µM	25.5 µM	48.8 µM	15.8 µM	78.6 µM	18.4 µM	–	–	–	–	–	–	–	–	–	–
OC1(c2ccc(Cl)cc2)c2ccccc2C2=NCc3ccccc3CN21 (stereo not given)	28.3 µM	17.8 µM	37.9 µM	25.6 µM	30.2 µM	23.7 µM	28.8 µM	23.7 µM	26.2 µM	17.9 µM	–	–	–	–	–	–	–	–	–	–
CC12CCC(C1)C(C)(C)C2OC(=O)c1ccccc1C(=O)O (stereo not given)	> 100 µM	> 100 µM	> 100 µM	> 100 µM	> 100 µM	> 100 µM	> 100 µM	> 100 µM	> 100 µM	> 100 µM	–	–	–	–	–	–	–	–	–	–
CC1CN=C(N(C)C(=O)Nc2ccc(Cl)c(Cl)c2)S1 (stereo not given)	> 100 µM	> 100 µM	> 100 µM	> 100 µM	> 100 µM	> 100 µM	> 100 µM	> 100 µM	73.2 µM	59.7 µM	–	–	–	–	–	–	–	–	–	–
O=C1C(CN2CCCC2)CCCC1CN1CCCC1 (stereo not given)	4.39 µM	3.42 µM	31.1 µM	20.3 µM	38.7 µM	4.27 µM	> 56.4 µM	43.5 µM	18.9 µM	2.8 µM	–	–	–	–	–	–	–	–	–	–
Cc1nc2ccccc2cc1C[N+]12CN3CN(CN(C3)C1)C2	35.5 µM	38.5 µM	43.1 µM	64.9 µM	47.8 µM	33.9 µM	54.6 µM	45.1 µM	56.3 µM	27.7 µM	–	–	–	–	–	–	–	–	–	–
O=C(CCC(=O)OCC1OC(O)(CC2OC(CO)C(O)C(O)C2O)C(O)C1O)OCc1ccccc1 (stereo not given)	> 100 µM	> 100 µM	> 100 µM	> 100 µM	> 100 µM	> 100 µM	> 100 µM	> 100 µM	> 100 µM	> 100 µM	–	–	–	–	–	–	–	–	–	–
